Measured values published in a melting point compilation (Tetko et al.).

Row | SMILES | melting point [°C]
1 | O=C(O)c1c2c(cc([N+](=O)[O-])c1[N+](=O)[O-])OCCO2 | 210 to 212
2 | Cn1c(S)nnc1-c1ccc(F)cc1 | 111 to 115
3 | Nc1cccc(-c2ccc3c(c2)CCO3)c1 | 64 to 66
4 | O=[N+]([O-])c1cnc(Cl)c(Br)c1 | 54 to 58
5 | CS(=O)(=O)N1CCN(c2ccc(N)cn2)CC1 | 178 to 180
6 | CC1(C2CC2)NC(=O)NC1=O (configuration not stated) | 168 to 170
7 | Cc1noc(-c2ccnc(Cl)c2)n1 | 65 to 67
8 | CC(C)(C)OC(=O)Nc1cscn1 | 153 to 155
9 | Cc1cc(Cl)c2cc(Br)cc(C)c2n1 | 134 to 136
10 | Cc1coc(-c2ccc(C)c(N)c2)n1 | 114 to 116
11 | CC(CC(N)=NO)N(C)C(=O)OC(C)(C)C (configuration not stated) | 102 to 104
12 | COc1ccc(C(O)C2CC2)c(C)c1 (configuration not stated) | 39 to 41
13 | CC(=O)NC(CC(N)=O)C(=O)O (configuration not stated) | 168 to 170
14 | Nc1cccc(-n2ccnc2S)c1 | 176 to 178
15 | CN(C)c1ccc(/C=C/C(=O)c2ccc([N+](=O)[O-])cc2)cc1 | 213 to 215
16 | Clc1ccc(Br)cc1CBr | 71 to 73
17 | NS(=O)(=O)C1CCCOC1 (configuration not stated) | 96 to 98
18 | N#Cc1cccc(-n2cncn2)c1 | 150 to 152

Row | SMILES | melting point [°C]
19 | COc1ccc2[nH]c(C)nc2c1 | 119 to 121
20 | NCc1ccn(-c2ccc(F)cc2)n1 | 56 to 58
21 | Cc1csc(NCC(F)(F)F)n1 | 142 to 144
22 | Cc1nc(C(C)(C)C)nc(Cl)c1C | 36 to 38
23 | CCOC(=O)C(N)=NO | 94 to 96
24 | O=C(O)CCN1C(=O)NC2(CCCC2)C1=O | 167 to 169
25 | CC(C(=O)O)C(C)(C)C (configuration not stated) | 34 to 36
26 | O=C1OCCN1c1ccc(Cl)c([N+](=O)[O-])c1 | 163 to 165
27 | O=C(O)c1cnn(Cc2ccccc2Cl)c1 | 144 to 146
28 | FC(F)(F)c1nc2c([nH]1)CCCC2 | 229 to 231
29 | O=C(O)CCc1n[nH]c(S)nc1=O | 162 to 164
30 | NC(=O)NC1CCCC1 | 192 to 194
31 | CC(C#N)CNC(=O)OC(C)(C)C (configuration not stated) | 77 to 79
32 | CC(=O)NC1(c2noc(CCC(=O)O)n2)CCCCCC1 | 149 to 151
33 | CC(=O)N1CCC(S(=O)(=O)Cl)CC1 | 95 to 97
34 | CN1CCN(c2ncc(Br)cc2CO)CC1 | 140 to 142
35 | c1cc2[nH]ncc2cc1NC1CN2CCC1CC2 (configuration not stated) | 192 to 194
36 | O=C(NC(Cc1c[nH]cn1)C(=O)O)C1CCCCC1 (configuration not stated) | 127 to 129

The remaining lines, values ahead:

Row | melting point [°C] | SMILES
37 | 253 to 255 | N#Cc1cccc(-c2nnc(N)o2)c1
38 | 101 to 103 | c1coc(-c2cc[nH]n2)c1
39 | 96 to 98 | O=C(CCl)N1c2ccccc2CCc2ccccc21
40 | 62 to 66 | CCc1ccccc1C(=O)O
41 | 86 to 88 | CC(C)Oc1cc(Br)ccc1C(=O)O
42 | 134 to 136 | CCOC(=O)/C(C#N)=C\Nc1ccc(C)cc1
43 | 117 to 119 | COc1cccc(Nc2nc3ccccc3s2)c1
44 | 188 to 190 | O=C(O)C1CCCCN1C(=O)c1cccnc1 (configuration not stated)
45 | 65 to 67 | CC(C)(C)OC(=O)NC(CN)c1ccccc1 (configuration not stated)
46 | 195 to 197 | O=C(O)CC1=NNC(=O)C1
47 | 202 to 204 | COc1ccc2oc(C(=O)O)c(C)c2c1
48 | < 17 | Cc1cc(C)n(-c2ccc(CO)cc2)n1
49 | 127 to 129 | Cc1cc(S(=O)(=O)Cl)ccc1OCC(=O)O
50 | 103 to 105 | CC(C)(C)OC(=O)N1CCC(Oc2ccccc2)(C(=O)O)CC1
51 | 75 to 77 | COc1ccc(C=NO)cc1OCc1ccccc1
52 | 271 to 273 | Cc1ccc(O)c(C(=O)Nc2nc(CC(=O)O)cs2)c1
53 | 213 to 215 | O=C(O)Cn1ncn2nccc2c1=O
54 | 143 to 145 | Cc1c(Cl)cccc1OCC(=O)O

Row | melting point [°C] | SMILES
55 | 175 to 177 | CCN(c1ccccc1)S(=O)(=O)c1ccc(NN)nc1
56 | 59 to 61 | COC(=O)C(=O)CC(=O)c1ccccc1C
57 | 73 to 77 | CC(=O)c1ccc(S(=O)(=O)N2CCCCCC2)cc1
58 | 57 to 59 | O=C(O)CSCc1ccc(Br)cc1F
59 | 79 to 81 | CC1(c2ccccc2)CC(=O)NC1=O (configuration not stated)
60 | 151 to 153 | O=C(O)CCCc1ccc2c(c1)-c1ccccc1C2
61 | 171 to 173 | CC(C)(C)c1ccc(Oc2ccc(C(=O)O)cc2F)cc1
62 | 59 to 61 | CCCOc1ccc(Cl)cc1C(=O)O
63 | 129 to 131 | CN(c1ccc(O)cc1)S(C)(=O)=O
64 | 103 to 105 | O=C(NCCc1ccccc1)n1ccnc1
65 | 181 to 183 | O=C(O)c1csc(-c2ccco2)n1
66 | 104 to 106 | Nc1nc(SCc2ccccc2)ns1
67 | 277 to 279 | Sc1nc(/C=C/c2ccccc2)n[nH]1
68 | 259 to 261 | O=C(O)c1ccc(N2CCCC2)c([N+](=O)[O-])c1
69 | 127 to 129 | Cc1cccc(C(=O)O)c1-n1cccc1
70 | 172 to 174 | O=c1cc(CO)nc2ccccn12
71 | 161 to 163 | O=C(O)C1CCCN1C(=O)Nc1ccccc1 (configuration not stated)
72 | 67 to 69 | NC1CCN(c2ccccc2F)C1=O (configuration not stated)
